Source: US6461997B1, “Triazole sulfones having herbicidal activity” (Monsanto Technology LLC, priority 1999, dated 2002)

Columns and labels:
[1] = system: BRAPP (broadleaf signalgrass); test: Pre-emergence herbicidal activity, warm season; assay type: in vivo, Brachiaria platyphylla; settings: for Pre-emergence activity (GR80) BRAPP: GR80 = lowest tested rate (300, 100, 30, 10 g/ha) with 80% or greater inhibition, approx. 14 days after treating, 30/21° C.
Summary of the method: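 Activity is expressed as the rate giving 80% inhibition, with 300, 100, 30 and 10 g/ha typically tested. An asterisk marks activity short of 80% at the top rate. Warm-season grasses were held at 30/21 °C; cool-season blackgrass and wild buckwheat at 18/13 °C; scoring at about 14 days.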

ECHCG (barnyardgrass) = test: Pre-plant incorporated (PPI) herbicidal activity, warm season; assay type: in vivo, Echinochloa crus-galli; settings: for inhibition at 10 g/ha / inhibition at 30 g/ha / inhibition at 100 g/ha / inhibition at 300 g/ha / inhibition at 900 g/ha: Echinochloa crus-galli, read-out: Percent inhibition ECHCG; for inhibition at 10 g/ha / inhibition at 30 g/ha / inhibition at 100 g/ha / inhibition at 300 g/ha / inhibition at 900 g/ha / Percent inhibition ECHCG: PPI application; for PPI activity GR80, ECHCG: pre-plant incorporated, lowest tested rate with 80% or greater inhibition, about 14 days
Method: (§1) In another set of tests, the pre-plant incorporated (PPI) activity of compounds of this invention was evaluated on the same species as for the pre-emergence tests described above. In the PPI tests the following procedure, designed to simulate PPI application, was used.
(§2) A pre-prepared topsoil mixture (described above) was placed in a pot and compacted to a depth of 1.0 to 1.25 cm from the top of the pot. Seeds of each of several monocotyledonous and dicotyledonous annual plant species were placed on top of the soil. A sufficient quantity of soil to cover the seeds and level fill the pot was weighed into an open container. A known amount of the test compound was dissolved or suspended in an organic solvent and applied by spraying to this cover soil. The cover soil was thoroughly mixed to distribute the test compound throughout the cover soil, and was then applied as a cover layer over the seeds. Untreated soil was used as a cover layer for control pots. After treatment the plants were placed in a greenhouse where they received 0.64 cm of overhead irrigation. All subsequent watering consisted of a light overhead mist and/or subirrigation as needed for germination and growth. Tables 9 and 10 below relate to warm season plant species which were placed after pre-emergence treatment in a greenhouse with a 30/21° C. day/night temperature regime. Tables 11 and 12 below relates to cool season plant species placed after pre-emergence treatment in a greenhouse or growth chamber with an 18/13° C. day/night temperature regime. Only the compounds of Examples 1, 6, 8, 11, 13 and 15-20 were included in PPI tests.
(§3) Approximately 14 days after planting and treating, the plants were observed and herbicidal efficacy recorded as percent inhibition by comparison with untreated plants.

SASKR (russian thistle) = test: Pre-plant incorporated (PPI) herbicidal activity, cool season; assay type: in vivo, Salsola kali; settings: for PPI activity GR80, SASKR: pre-plant incorporated, lowest tested rate with 80% or greater inhibition, about 14 days
Method: as §1, §2, §3

[2] = system: LAMPU (purple deadnettle); test: as above; assay type: in vivo, Lamium purpureum; settings: for PPI activity GR80, LAMPU: pre-plant incorporated, lowest tested rate with 80% or greater inhibition, about 14 days
Method: as §1, §2, §3

[3] = system: BRAPP (broadleaf signalgrass); test: Pre-plant incorporated (PPI) herbicidal activity, warm season; assay type: in vivo, Brachiaria platyphylla; settings: for inhibition at 10 g/ha / inhibition at 30 g/ha / inhibition at 100 g/ha / inhibition at 300 g/ha / inhibition at 900 g/ha: Urochloa platyphylla, read-out: Percent inhibition BRAPP; for inhibition at 10 g/ha / inhibition at 30 g/ha / inhibition at 100 g/ha / inhibition at 300 g/ha / inhibition at 900 g/ha / Percent inhibition BRAPP: PPI application; for PPI activity GR80, BRAPP: pre-plant incorporated, lowest tested rate with 80% or greater inhibition, about 14 days
Method: as §1, §2, §3

AMARE (redroot pigweed) = test: Pre-emergence herbicidal activity, warm season; assay type: in vivo, Amaranthus retroflexus; settings: for inhibition at 10 g/ha / inhibition at 30 g/ha / inhibition at 100 g/ha / inhibition at 300 g/ha / inhibition at 900 g/ha: Amaranthus retroflexus, pre-emergence application, read-out: Percent inhibition, weed AMARE; for Pre-emergence activity (GR80) AMARE: GR80 = lowest tested rate (300, 100, 30, 10 g/ha) with 80% or greater inhibition, approx. 14 days after treating, 30/21° C.
Summary of the method: (§4)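 Seeds sown in sterilised fertilised topsoil received surface-applied compound in 50:50 acetone/water, typically at 300, 100, 30 and 10 g/ha, then greenhouse-grown at 30/21° C (warm-season species) or 18/13° C (cool-season species). Percent inhibition versus untreated plants was scored at about 14 days, giving GR80; an asterisk marks activity short of 80% at the top rate.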

STEME (common chickweed) = test: Pre-emergence herbicidal activity, cool season; assay type: in vivo, Stellaria media; settings: lowest tested rate with 80% or greater inhibition; rates 300, 100, 30, 10 g/ha; about 14 days
Summary of the method: as §4

[4] = Urochloa platyphylla, pre-emergence application, read-out: Percent inhibition, weed BRAPP
[5] = weed, PPI application, 100 g/ha
[6] = weed, PPI application, 300 g/ha
[7] = weed, PPI application, 900 g/ha

## CCN(CC)C(=O)n1cnc(S(=O)(=O)C(F)(F)Br)n1 [Example 1, 3-(bromodifluoromethylsulfonyl)-1-(N,N-diethylcarbamoyl)-1,2,4-triazole]
[1]
  Pre-emergence activity (GR80) BRAPP: * (activity observed, at least at highest rate, but <80% inhibition)
[1]; [4]
  inhibition at 10 g/ha: 0%
  inhibition at 30 g/ha: 0%
  inhibition at 100 g/ha: 40%
  inhibition at 300 g/ha: 70%
ECHCG (barnyardgrass)
  inhibition at 10 g/ha: 0%
  PPI activity GR80, ECHCG: 30 g/ha
ECHCG (barnyardgrass); 30 g/ha
  inhibition at 30 g/ha: 20%
ECHCG (barnyardgrass); 100 g/ha
  inhibition at 100 g/ha: 99%
ECHCG (barnyardgrass); 300 g/ha
  inhibition at 300 g/ha: 100%
ECHCG (barnyardgrass); 900 g/ha
  inhibition at 900 g/ha: 100%
SASKR (russian thistle); Salsola kali, weed, PPI application, 30 g/ha, read-out: Percent inhibition SASKR
  inhibition at 30 g/ha: 80%
SASKR (russian thistle); Salsola kali, weed, PPI application, 100 g/ha, read-out: Percent inhibition SASKR
  inhibition at 100 g/ha: 100%
SASKR (russian thistle); Salsola kali, weed, PPI application, 300 g/ha, read-out: Percent inhibition SASKR
  inhibition at 300 g/ha: 100%
SASKR (russian thistle); Salsola kali, weed, PPI application, 900 g/ha, read-out: Percent inhibition SASKR
  inhibition at 900 g/ha: 100%
SASKR (russian thistle)
  PPI activity GR80, SASKR: 100 g/ha
[2]; Lamium purpureum, weed, PPI application, 30 g/ha, read-out: Percent inhibition LAMPU
  inhibition at 30 g/ha: 80%
[2]; Lamium purpureum, weed, PPI application, 100 g/ha, read-out: Percent inhibition LAMPU
  inhibition at 100 g/ha: 70%
[2]; Lamium purpureum, weed, PPI application, 300 g/ha, read-out: Percent inhibition LAMPU
  inhibition at 300 g/ha: 95%
[2]; Lamium purpureum, weed, PPI application, 900 g/ha, read-out: Percent inhibition LAMPU
  inhibition at 900 g/ha: 100%
[2]
  PPI activity GR80, LAMPU: 100 g/ha
[3]
  inhibition at 10 g/ha: 0%
  PPI activity GR80, BRAPP: 100 g/ha
[3]; 30 g/ha
  inhibition at 30 g/ha: 0%
[3]; 100 g/ha
  inhibition at 100 g/ha: 100%
[3]; 300 g/ha
  inhibition at 300 g/ha: 90%
[3]; 900 g/ha
  inhibition at 900 g/ha: 100%
AMARE (redroot pigweed)
  inhibition at 10 g/ha: 0%
  inhibition at 30 g/ha: 0%
  inhibition at 100 g/ha: 60%
  inhibition at 300 g/ha: 50%
  inhibition at 900 g/ha: 90%
  Pre-emergence activity (GR80) AMARE: 30 g/ha
STEME (common chickweed)
  Pre-emergence activity GR80, STEME: 100 g/ha

## CCN(CC)C(=O)n1cnc(S(=O)(=O)C(F)(F)F)n1 [Example 2]
[1]
  Pre-emergence activity (GR80) BRAPP: 300 g/ha
ECHCG (barnyardgrass); 30 g/ha
  Percent inhibition ECHCG: 40%
ECHCG (barnyardgrass); 100 g/ha
  Percent inhibition ECHCG: 80%
ECHCG (barnyardgrass); 300 g/ha
  Percent inhibition ECHCG: 100%
ECHCG (barnyardgrass); 900 g/ha
  Percent inhibition ECHCG: 100%
SASKR (russian thistle); weed, PPI application, 30 g/ha
  Percent inhibition SASKR: 50%
SASKR (russian thistle); [5]
  Percent inhibition SASKR: 80%
SASKR (russian thistle); [6]
  Percent inhibition SASKR: 85%
SASKR (russian thistle); [7]
  Percent inhibition SASKR: 100%
[2]; weed, PPI application, 30 g/ha
  Percent inhibition LAMPU: 30%
[2]; [5]
  Percent inhibition LAMPU: 70%
[2]; [6]
  Percent inhibition LAMPU: 95%
[2]; [7]
  Percent inhibition LAMPU: 100%
[3]; 30 g/ha
  Percent inhibition BRAPP: 80%
[3]; 100 g/ha
  Percent inhibition BRAPP: 50%
[3]; 300 g/ha
  Percent inhibition BRAPP: 90%
[3]; 900 g/ha
  Percent inhibition BRAPP: 70%
AMARE (redroot pigweed)
  Pre-emergence activity (GR80) AMARE: 30 g/ha
STEME (common chickweed)
  Pre-emergence activity GR80, STEME: 10 g/ha

## CCN(CC)C(=O)n1cnc(S(=O)(=O)C(F)(F)Cl)n1 [Example 3]
[1]
  Pre-emergence activity (GR80) BRAPP: 100 g/ha
ECHCG (barnyardgrass); 30 g/ha
  Percent inhibition ECHCG: 100%
ECHCG (barnyardgrass); 100 g/ha
  Percent inhibition ECHCG: 99%
ECHCG (barnyardgrass); 300 g/ha
  Percent inhibition ECHCG: 100%
ECHCG (barnyardgrass); 900 g/ha
  Percent inhibition ECHCG: 100%
SASKR (russian thistle); weed, PPI application, 30 g/ha
  Percent inhibition SASKR: 80%
SASKR (russian thistle); [5]
  Percent inhibition SASKR: 80%
SASKR (russian thistle); [6]
  Percent inhibition SASKR: 100%
SASKR (russian thistle); [7]
  Percent inhibition SASKR: 100%
[2]; weed, PPI application, 30 g/ha
  Percent inhibition LAMPU: 60%
[2]; [5]
  Percent inhibition LAMPU: 95%
[2]; [6]
  Percent inhibition LAMPU: 100%
[2]; [7]
  Percent inhibition LAMPU: 100%
[3]; 30 g/ha
  Percent inhibition BRAPP: 30%
[3]; 100 g/ha
  Percent inhibition BRAPP: 100%
[3]; 300 g/ha
  Percent inhibition BRAPP: 100%
[3]; 900 g/ha
  Percent inhibition BRAPP: 90%
AMARE (redroot pigweed)
  Pre-emergence activity (GR80) AMARE: 100 g/ha
STEME (common chickweed)
  Pre-emergence activity GR80, STEME: 30 g/ha

## CCN(CC)C(=O)n1cnc(S(=O)(=O)C(F)F)n1 [Example 15, 1-(N,N-diethylcarbamoyl)-3-(difluoromethylsulfonyl)-1,2,4-triazole]
[1]
  Pre-emergence activity (GR80) BRAPP: 300 g/ha
[1]; [4]
  inhibition at 10 g/ha: 0%
  inhibition at 30 g/ha: 0%
  inhibition at 100 g/ha: 40%
  inhibition at 300 g/ha: 50%
[1]; Urochloa platyphylla, pre-emergence application, 900 g/ha, read-out: Percent inhibition, weed BRAPP
  inhibition at 900 g/ha: 85%
ECHCG (barnyardgrass)
  inhibition at 10 g/ha: 10%
  PPI activity GR80, ECHCG: 100 g/ha
ECHCG (barnyardgrass); 30 g/ha
  inhibition at 30 g/ha: 50%
ECHCG (barnyardgrass); 100 g/ha
  inhibition at 100 g/ha: 90%
ECHCG (barnyardgrass); 300 g/ha
  inhibition at 300 g/ha: 100%
ECHCG (barnyardgrass); 900 g/ha
  inhibition at 900 g/ha: 90%
SASKR (russian thistle)
  PPI activity GR80, SASKR: 100 g/ha
[2]
  PPI activity GR80, LAMPU: 300 g/ha
[3]
  inhibition at 10 g/ha: 0%
  PPI activity GR80, BRAPP: 100 g/ha
[3]; 30 g/ha
  inhibition at 30 g/ha: 0%
[3]; 100 g/ha
  inhibition at 100 g/ha: 95%
[3]; 300 g/ha
  inhibition at 300 g/ha: 99%
[3]; 900 g/ha
  inhibition at 900 g/ha: 100%
AMARE (redroot pigweed)
  inhibition at 10 g/ha: 0%
  inhibition at 30 g/ha: 0%
  inhibition at 100 g/ha: 0%
  inhibition at 300 g/ha: 40%
  inhibition at 900 g/ha: 95%
  Pre-emergence activity (GR80) AMARE: 30 g/ha
